Assay results reported in ChEMBL document CHEMBL1147612, “Synthesis, topoisomerase I inhibition and structure-activity relationship study of 2,4,6-trisubstituted pyridine derivatives” (Bioorg Med Chem Lett, 2004).

Tests used:
Assay type in all cases: functional, cell-based
[1] = test system: HCT-15; assay: Antitumor cytotoxicity was determined against the HCT-15 (human colon adenocarcinoma) cell line; Range: 0.01 to 0.03
[2] = test system: SK-OV-3; assay: Antitumor cytotoxicity was determined against the SK-OV-3 (human ovary adenocarcinoma) cell line; Range: 0.01 to 0.03; details: SK-OV-3, Female gonad
[3] = test system: SK-MEL-2; assay: Antitumor cytotoxicity was determined against the SK-MEL-2 (human malignant melanoma) cell line; Range: 0.01 to 0.03
[4] = test system: A549; assay: Antitumor cytotoxicity was determined against the A-549(human lung carcinoma) cell line; Range: 0.01 to 0.03

Measured: EC50

c1ccc(-c2cc(-c3ccccn3)nc(-c3ccccn3)c2)nc1
0.03 µM: all assays above
